Measurements reported in the CheMixHub viscosity set.

Assay: xn = mol fraction of the nth substance listed

CCCCOC(=O)c1ccccc1 + CCCCCCCCCCCC
101 kPa
Conditions	viscosity [mPa·s]
298.15 K, x2 = 0.0369	2.578
298.15 K, x2 = 0.0748	2.463
298.15 K, x2 = 0.1143	2.347
298.15 K, x2 = 0.1505	2.251
298.15 K, x2 = 0.1939	2.149
298.15 K, x2 = 0.2329	2.064
298.15 K, x2 = 0.2775	1.977
298.15 K, x2 = 0.3263	1.893
298.15 K, x2 = 0.3672	1.834
298.15 K, x2 = 0.4144	1.759
298.15 K, x2 = 0.4576	1.702
298.15 K, x2 = 0.5085	1.649
298.15 K, x2 = 0.5525	1.594
298.15 K, x2 = 0.6026	1.549
298.15 K, x2 = 0.6499	1.506
298.15 K, x2 = 0.7176	1.457
298.15 K, x2 = 0.7662	1.428
298.15 K, x2 = 0.8184	1.399
298.15 K, x2 = 0.8852	1.372
308.15 K, x2 = 0.0565	2.041
308.15 K, x2 = 0.0869	1.968
308.15 K, x2 = 0.1399	1.857
308.15 K, x2 = 0.1662	1.807
308.15 K, x2 = 0.2145	1.722
308.15 K, x2 = 0.2546	1.662
308.15 K, x2 = 0.3019	1.596
308.15 K, x2 = 0.3408	1.548
308.15 K, x2 = 0.3915	1.49
308.15 K, x2 = 0.4297	1.451
308.15 K, x2 = 0.4845	1.4
308.15 K, x2 = 0.5231	1.367
308.15 K, x2 = 0.5719	1.328
308.15 K, x2 = 0.6276	1.287
308.15 K, x2 = 0.68	1.256
308.15 K, x2 = 0.7278	1.229
308.15 K, x2 = 0.7842	1.202
308.15 K, x2 = 0.8501	1.176
308.15 K, x2 = 0.9392	1.151
318.15 K, x2 = 0.0245	1.764
318.15 K, x2 = 0.0618	1.688
318.15 K, x2 = 0.101	1.612
318.15 K, x2 = 0.1422	1.543
318.15 K, x2 = 0.181	1.487
318.15 K, x2 = 0.2247	1.427
318.15 K, x2 = 0.2652	1.376
318.15 K, x2 = 0.3117	1.325
318.15 K, x2 = 0.355	1.282
318.15 K, x2 = 0.4033	1.238
318.15 K, x2 = 0.4479	1.202
318.15 K, x2 = 0.5006	1.163
318.15 K, x2 = 0.5557	1.127
318.15 K, x2 = 0.604	1.099
318.15 K, x2 = 0.6185	1.091
318.15 K, x2 = 0.7124	1.045
318.15 K, x2 = 0.7679	1.024
318.15 K, x2 = 0.8278	1.006
318.15 K, x2 = 0.9612	0.974

CCCCOC(=O)c1ccccc1 + CCCCCCCCCCCCCC
101 kPa
Conditions	viscosity [mPa·s]
298.15 K, x2 = 0.0346	2.623
298.15 K, x2 = 0.0683	2.562
298.15 K, x2 = 0.1072	2.49
298.15 K, x2 = 0.1432	2.436
298.15 K, x2 = 0.1795	2.38
298.15 K, x2 = 0.2175	2.328
298.15 K, x2 = 0.2506	2.282
298.15 K, x2 = 0.2944	2.226
298.15 K, x2 = 0.3362	2.186
298.15 K, x2 = 0.3761	2.154
298.15 K, x2 = 0.4036	2.128
298.15 K, x2 = 0.472	2.08
298.15 K, x2 = 0.5203	2.055
298.15 K, x2 = 0.5754	2.03
298.15 K, x2 = 0.6238	2.015
298.15 K, x2 = 0.6833	1.995
298.15 K, x2 = 0.7394	1.989
298.15 K, x2 = 0.8084	1.99
298.15 K, x2 = 0.8738	2.005
308.15 K, x2 = 0.0474	2.117
308.15 K, x2 = 0.0876	2.049
308.15 K, x2 = 0.1255	1.995
308.15 K, x2 = 0.1576	1.956
308.15 K, x2 = 0.1932	1.916
308.15 K, x2 = 0.2315	1.876
308.15 K, x2 = 0.2692	1.842
308.15 K, x2 = 0.3166	1.806
308.15 K, x2 = 0.3536	1.783
308.15 K, x2 = 0.3967	1.758
308.15 K, x2 = 0.4455	1.735
308.15 K, x2 = 0.4967	1.714
308.15 K, x2 = 0.5574	1.696
308.15 K, x2 = 0.5991	1.684
308.15 K, x2 = 0.6454	1.675
308.15 K, x2 = 0.7094	1.667
308.15 K, x2 = 0.7691	1.664
308.15 K, x2 = 0.8229	1.665
308.15 K, x2 = 0.9132	1.68
318.15 K, x2 = 0.0221	1.779
318.15 K, x2 = 0.0602	1.728
318.15 K, x2 = 0.0938	1.687
318.15 K, x2 = 0.1331	1.646
318.15 K, x2 = 0.1693	1.612
318.15 K, x2 = 0.2101	1.576
318.15 K, x2 = 0.249	1.546
318.15 K, x2 = 0.2933	1.516
318.15 K, x2 = 0.3356	1.491
318.15 K, x2 = 0.3836	1.467
318.15 K, x2 = 0.4273	1.448
318.15 K, x2 = 0.4797	1.428
318.15 K, x2 = 0.5267	1.413
318.15 K, x2 = 0.5825	1.399
318.15 K, x2 = 0.6341	1.388
318.15 K, x2 = 0.6948	1.38
318.15 K, x2 = 0.7506	1.377
318.15 K, x2 = 0.8156	1.375
318.15 K, x2 = 0.8778	1.381

CCNCC + CCCCCCCCCCO
viscosity [mPa·s], 101 kPa
Conditions	x1 = 0.5973	x2 = 0.0971	x2 = 0.1985	x2 = 0.2971	x2 = 0.4003	x2 = 0.5148	x2 = 0.6024	x2 = 0.7216	x2 = 0.8014	x2 = 0.8997
298.15 K	–	0.472	0.762	1.184	1.834	2.865	3.979	5.858	7.47	9.664
303 K	2.015	–	–	–	–	–	–	–	–	–
313.15 K	–	0.378	0.576	0.851	1.254	1.87	2.556	3.617	4.497	5.631

Nc1ccccc1 + CCCCCCCCCCO
viscosity [mPa·s], 100 kPa
Conditions	x1 = 0.0718	x1 = 0.1593	x1 = 0.2335	x1 = 0.3471	x1 = 0.4452	x1 = 0.5618	x1 = 0.6428	x1 = 0.7439	x1 = 0.8518	x1 = 0.9439
293.15 K	12.8	11.23	10.05	8.62	7.44	6.23	5.57	4.95	4.47	4.31
303.15 K	8.75	7.6	6.85	5.92	5.25	4.38	3.94	3.56	3.23	3.12
313.15 K	6.16	5.4	4.9	4.28	3.84	3.3	2.97	2.7	2.5	2.44
323.15 K	4.47	4	3.65	3.21	2.89	2.51	2.28	2.1	1.95	1.91
